Assay results: patent publication US10759783B2, “Biaryl inhibitors of Bruton'S tyrosine kinase” (BIOGEN MA INC., priority 2013, dated 2020)

target: T1, BTK enzyme (Homo sapiens, UniProt Q06187); test: In vitro BTK kinase assay: BTK-POLYGAT-LS assay; type: biochemical; conditions: ATP 10 μM, read-out: IC50 (10uMATP)
T1 construct: purchased Upstate 14-552
Method: The purpose of the BTK in vitro assay is to determine compound potency against BTK through the measurement of IC50. […] For a typical assay, a 24 μL aliquot of a ATP/peptide master mix (final concentration; ATP 10 μM, polyGAT 100 nM) in kinase buffer (10 mM Tris-HCl pH 7.5, 10 mM MgCl2, 200 μM Na3PO4, 5 mM DTT, 0.01% Triton X-100, and 0.2 mg/ml casein) is added to each well. […] The assay is incubated for 30 minutes before being stopped with 28 μL of a 50 mM EDTA solution. […] The plate is covered and incubated for 45 minutes at room temperature.

T1 sequence (Q06187 whole entry): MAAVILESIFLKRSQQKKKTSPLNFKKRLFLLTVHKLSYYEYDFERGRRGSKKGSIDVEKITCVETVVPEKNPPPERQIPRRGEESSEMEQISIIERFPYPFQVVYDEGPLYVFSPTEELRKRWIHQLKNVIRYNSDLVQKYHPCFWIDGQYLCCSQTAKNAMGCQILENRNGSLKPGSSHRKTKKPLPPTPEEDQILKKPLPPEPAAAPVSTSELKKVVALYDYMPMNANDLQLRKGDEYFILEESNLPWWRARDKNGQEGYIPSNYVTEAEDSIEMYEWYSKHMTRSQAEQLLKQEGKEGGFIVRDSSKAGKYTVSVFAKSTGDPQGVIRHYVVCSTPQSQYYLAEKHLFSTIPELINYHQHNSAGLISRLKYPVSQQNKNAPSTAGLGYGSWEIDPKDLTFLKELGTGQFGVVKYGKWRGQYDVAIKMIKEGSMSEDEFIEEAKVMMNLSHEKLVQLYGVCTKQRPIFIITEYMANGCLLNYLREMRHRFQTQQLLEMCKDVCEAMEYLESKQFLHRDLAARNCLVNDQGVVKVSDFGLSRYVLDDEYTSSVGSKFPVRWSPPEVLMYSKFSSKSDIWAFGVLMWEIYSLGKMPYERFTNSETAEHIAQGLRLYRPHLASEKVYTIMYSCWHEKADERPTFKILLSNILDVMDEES

SMILES	IC50 [nM]
Cc1cc(-c2ccnc(N)n2)ccc1CNC(=O)c1cnc(C(F)(F)F)s1 [Example I-83, N-(4-(2-aminopyrimidin-4-yl)-2-methylbenzyl)-2-(trifluoromethyl)thiazole-5-carboxamide]	100 to 999
Cn1cc(Nc2nccc(-c3ccc4c(c3)OCCC4NC(=O)c3cnc(C(C)(C)C)s3)n2)cn1 (stereo not shown) [Example I-97, 2-(tert-butyl)-N-(7-(2-((1-methyl-1H-pyrazol-4-yl)amino)pyrimidin-4-yl)chroman-4-yl)thiazole-5-carboxamide]	< 10
Nc1nccc(-c2ccc3c(c2)CCCC3NC(=O)c2cc3c(s2)CCCC3)n1 (stereo not shown) [Example I-137, N-(6-(2-aminopyrimidin-4-yl)-1,2,3,4-tetrahydronaphthalen-1-yl)-4,5,6,7-tetrahydrobenzo[b]thiophene-2-carboxamide]	< 10
Cc1cc(-c2ccnc(N)n2)ccc1CNC(=O)c1cnn(C)c1 [Example I-80, N-(4-(2-aminopyrimidin-4-yl)-2-methylbenzyl)-1-methyl-1H-pyrazole-4-carboxamide]	1000 to 10000
Cc1cc(-c2ccnc(Nc3cnn(C)c3)n2)ccc1CNC(=O)NC12CCC(CC1)CC2 [Example I-22, 1-(bicyclo[2.2.2]octan-1-yl)-3-(2-methyl-4-(2-((1-methyl-1H-pyrazol-4-yl)amino)pyrimidin-4-yl)benzyl)urea]	10 to 99
Cc1cc(-c2cc(Nc3cc4n(n3)CCN(C)C4)ncn2)ccc1CNC(=O)c1cnn(C(C)(C)C)c1 [Example I-150, 1-(tert-butyl)-N-(2-methyl-4-(6-((5-methyl-4,5,6,7-tetrahydropyrazolo[1,5-a]pyrazin-2-yl)amino)pyrimidin-4-yl)benzyl)-1H-pyrazole-4-carboxamide]	< 10
Cc1cc(-c2ccnc(Nc3cnn(C)c3)n2)ccc1CNC(=O)c1cn2c(n1)CCCC2 [Example I-156, N-(2-Methyl-4-(2-((1-methyl-1H-pyrazol-4-yl)amino)pyrimidin-4-yl)benzyl)-5,6,7,8-tetrahydroimidazo[1,2-a]pyridine-2-carboxamide]	100 to 999
Cn1cc(Nc2nccc(-c3ccc4c(c3)COCC4NC(=O)c3cnc(C(C)(C)C)s3)n2)cn1 (stereo not shown) [Example I-98, 2-(tert-butyl)-N-(7-(2-((1-methyl-1H-pyrazol-4-yl)amino)pyrimidin-4-yl)isochroman-4-yl)thiazole-5-carboxamide]	10 to 99
Cc1cc(-c2nc(N)ncc2F)ccc1CNC(=O)c1cnc(C(C)(C)C)s1 [Example I-110, N-(4-(2-amino-5-fluoropyrimidin-4-yl)-2-methylbenzyl)-2-(tert-butyl)thiazole-5-carboxamide]	10 to 99
Cc1cc(-c2ccnc(NCC3CCS(=O)(=O)CC3)n2)ccc1CNC(=O)c1cnc(C(C)(C)C)s1 [Example I-31, 2-(tert-butyl)-N-(4-(2-(((1,1-dioxidotetrahydro-2H-thiopyran-4-yl)methyl)amino)pyrimidin-4-yl)-2-methylbenzyl)thiazole-5-carboxamide]	100 to 999
Cc1cc(-c2ccnc(N)n2)ccc1CNC(=O)c1ccc2c(n1)CCNC2 [Example I-78, N-(4-(2-aminopyrimidin-4-yl)-2-methylbenzyl)-5,6,7,8-tetrahydro-1,6-naphthyridine-2-carboxamide]	> 10000
Cc1cc(-c2nc(Nc3cnn(C)c3)ncc2C)ccc1CNC(=O)c1cnc(C(C)(C)C)s1 [Example I-112, 2-(tert-butyl)-N-(2-methyl-4-(5-methyl-2-((1-methyl-1H-pyrazol-4-yl)amino)pyrimidin-4-yl)benzyl)thiazole-5-carboxamide]	< 10
Cc1cc(-c2cc(Nc3cc4n(n3)CCCNC4)ncn2)ccc1CNC(=O)c1cnc(C(C)(C)C)s1 [Example I-148, 2-(tert-butyl)-N-(2-methyl-4-(6-((5,6,7,8-tetrahydro-4H-pyrazolo[1,5-a][1,4]diazepin-2-yl)amino)pyrimidin-4-yl)benzyl)thiazole-5-carboxamide]	< 10
Cc1cc(-c2ccnc(Nc3cnn(C)c3)n2)ccc1CNC(=O)[C@H]1CC[C@@H](C(F)(F)F)CC1 [Example I-17, cis-N-(2-methyl-4-(2-((1-methyl-1H-pyrazol-4-yl)amino)pyrimidin-4-yl)benzyl)-4-(trifluoromethyl)cyclohexanecarboxamide]	100 to 999
Cc1cc(-c2ccnc(N)n2)ccc1CNC(=O)[C@@H]1CC[C@@H]2CNCCN2C1 [Example I-79, (7R,9aR)—N-(4-(2-aminopyrimidin-4-yl)-2-methylbenzyl)octahydro-1H-pyrido[1,2-a]pyrazine-7-carboxamide]	1000 to 10000
Cc1cc(-c2ccnc(NC(=O)C3CCN(C)CC3)c2)ccc1CNC(=O)c1cnc(C(C)(C)C)s1 [Example I-71, 2-(tert-butyl)-N-(2-methyl-4-(2-(1-methylpiperidine-4-carboxamido)pyridin-4-yl)benzyl)thiazole-5-carboxamide]	10 to 99

SMILES	IC50 [nM]
CC(C)(C)c1ncc(C(=O)NC2CCCc3cc(-c4cc(Nc5cn[nH]c5)ncn4)ccc32)s1 (stereo not shown) [Example I-93, N-(6-(6-((1H-pyrazol-4-yl)amino)pyrimidin-4-yl)-1,2,3,4-tetrahydronaphthalen-1-yl)-2-(tert-butyl)thiazole-5-carboxamide]	10 to 99
C=CC(=O)N(C)Cc1cc(-c2ccnc(N)n2)ccc1CNC(=O)c1cc2c(s1)CCCC2 [Example I-146, N-(4-(2-aminopyrimidin-4-yl)-2-((N-methylacrylamido)methyl)benzyl)-4,5,6,7-tetrahydrobenzo[b]thiophene-2-carboxamide]	100 to 999
Cc1cc(-c2ccnc(Nc3cnn(C)c3)n2)ccc1CNC(=O)c1ccn(C)c1 [Example I-155, 1-Methyl-N-(2-methyl-4-(2-((1-methyl-1H-pyrazol-4-yl)amino)pyrimidin-4-yl)benzyl)-1H-pyrrole-3-carboxamide]	10 to 99
Cc1nc(-c2ccnc(Nc3cnn(C)c3)n2)ccc1CNC(=O)c1cc2c(s1)CCOC2 [Example I-104, N-((2-methyl-6-(2-((1-methyl-1H-pyrazol-4-yl)amino)pyrimidin-4-yl)pyridin-3-yl)methyl)-6,7-dihydro-4H-thieno[3,2-c]pyran-2-carboxamide]	100 to 999
CC(=O)Nc1cc(-c2ccc(CNC(=O)c3cc4c(s3)CCCC4)c(C)c2)ncn1 [Example I-143, N-(4-(6-acetamidopyrimidin-4-yl)-2-methylbenzyl)-4,5,6,7-tetrahydrobenzo[b]thiophene-2-carboxamide]	< 10
Cn1cc(Nc2nccc(-c3ccc(CNC(=O)c4cc5c(s4)CCOC5)c(F)c3)n2)cn1 [Example I-117, N-(2-fluoro-4-(2-((1-methyl-1H-pyrazol-4-yl)amino)pyrimidin-4-yl)benzyl)-6,7-dihydro-4H-thieno[3,2-c]pyran-2-carboxamide]	10 to 99
Cc1cc(-c2cnnc(Nc3cnn(C)c3)c2)ccc1CNC(=O)c1cnc(C(C)(C)C)s1 [Example I-114, 2-(tert-butyl)-N-(2-methyl-4-(6-((1-methyl-1H-pyrazol-4-yl)amino)pyridazin-4-yl)benzyl)thiazole-5-carboxamide]	100 to 999
Cc1cc(-c2cc(Nc3cc4n(n3)CCCN(C(=O)OC(C)(C)C)C4)ncn2)ccc1CNC(=O)c1cnc(C(C)(C)C)s1 [Example I-149, tert-butyl 2-((6-(4-((2-(tert-butyl)thiazole-5-carboxamido)methyl)-3-methylphenyl)pyrimidin-4-yl)amino)-7,8-dihydro-4H-pyrazolo[1,5-a][1,4]diazepine-5(6H)-carboxylate]	< 10
Cc1cc(-c2ccnc(Nc3cn(C)nn3)n2)ccc1CNC(=O)c1cnc(C(C)(C)C)s1 [Example I-58, 2-(tert-butyl)-N-(2-methyl-4-(2-((1-methyl-1H-1,2,3-triazol-4-yl)amino)pyrimidin-4-yl)benzyl)thiazole-5-carboxamide]	10 to 99
Cc1cc(-c2ccnc(N[C@@H](C)C3CCCCC3)n2)ccc1CNC(=O)c1cnc(C(C)(C)C)s1 [Example I-28, (S)-2-(tert-butyl)-N-(4-(2-((1-cyclohexylethyl)amino)pyrimidin-4-yl)-2-methylbenzyl)thiazole-5-carboxamide]	> 10000
Cc1cc(-c2ccnc(Nc3cnn(C)c3)n2)ccc1C(C)NC(=O)c1cnc(C(C)(C)C)s1 (stereo not shown) [Example I-106, 2-(tert-butyl)-N-(1-(2-methyl-4-(2-((1-methyl-1H-pyrazol-4-yl)amino)pyrimidin-4-yl)phenyl)ethyl)thiazole-5-carboxamide]	< 10
Cc1cc(-c2ccnc(Nc3cnn(C)c3)n2)cnc1CNC(=O)c1cc2c(s1)CCOC2 [Example I-101, N-((3-methyl-5-(2-((1-methyl-1H-pyrazol-4-yl)amino)pyrimidin-4-yl)pyridin-2-yl)methyl)-6,7-dihydro-4H-thieno[3,2-c]pyran-2-carboxamide]	10 to 99
Cc1cc(-c2ccnc(N)n2)ccc1CNC(=O)c1cc2c(s1)CNCC2 [Example I-82, N-(4-(2-aminopyrimidin-4-yl)-2-methylbenzyl)-4,5,6,7-tetrahydrothieno[2,3-c]pyridine-2-carboxamide]	100 to 999
Cc1cc(-c2ccnc(Nc3ccccn3)n2)ccc1CNC(=O)c1cnc(C(C)(C)C)s1 [Example I-60, 2-(tert-butyl)-N-(2-methyl-4-(2-(pyridin-2-ylamino)pyrimidin-4-yl)benzyl)thiazole-5-carboxamide]	10 to 99
Cc1cc(-c2ccnc(Nc3cnn(C)c3)n2)ccc1C(C)NC(=O)c1cc2c(s1)CCOC2 (stereo not shown) [Example I-105, N-(1-(2-methyl-4-(2-((1-methyl-1H-pyrazol-4-yl)amino)pyrimidin-4-yl)phenyl)ethyl)-6,7-dihydro-4H-thieno[3,2-c]pyran-2-carboxamide]	10 to 99
